Article PMC6028563, “Probing Substituents in the 1- and 3-Position: Tetrahydropyrazino-Annelated Water-Soluble Xanthine Derivatives as Multi-Target Drugs With Potent Adenosine Receptor Antagonistic Activity” (Frontiers in Chemistry, 2018)

Tests used:
recombinant human MAO-B = target: T1, recombinant human MAO-B (Homo sapiens, UniProt P27338); assay: Monoamine oxidase assay (Amplex Red), MAO-B; assay type: biochemical; details: for inhibition at 10 µM: at 10,000 nM (10 μM), read-out: % inhibition at indicated concentration, Human MAO-B; for IC50: n = 3, read-out: IC50 ± SEM, Human MAO-B
T1 construct: purchased Sigma-Aldrich M7441; host or cells: baculovirus-infected insect cells
T1 sequence (P27338 1-520): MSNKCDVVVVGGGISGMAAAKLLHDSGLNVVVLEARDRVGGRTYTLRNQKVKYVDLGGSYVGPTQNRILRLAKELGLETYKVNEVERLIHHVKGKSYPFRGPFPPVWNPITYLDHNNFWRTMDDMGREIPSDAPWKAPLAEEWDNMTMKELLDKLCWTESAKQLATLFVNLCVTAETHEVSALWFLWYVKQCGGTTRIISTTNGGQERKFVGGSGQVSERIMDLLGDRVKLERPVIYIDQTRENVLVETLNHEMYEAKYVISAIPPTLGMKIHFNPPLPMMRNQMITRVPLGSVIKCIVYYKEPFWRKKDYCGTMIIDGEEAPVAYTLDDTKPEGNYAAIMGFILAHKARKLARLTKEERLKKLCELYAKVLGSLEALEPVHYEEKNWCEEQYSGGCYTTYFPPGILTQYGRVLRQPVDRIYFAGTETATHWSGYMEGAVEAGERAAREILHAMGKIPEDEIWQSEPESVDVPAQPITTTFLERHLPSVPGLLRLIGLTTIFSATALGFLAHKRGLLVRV
How it was run: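 Inhibition was measured with an Amplex Red monoamine oxidase assay, using human MAO-A and MAO-B produced recombinantly in baculovirus-infected insect cells. For rat MAO-B, liver mitochondria-enriched fractions from male Sprague Dawley rats served as enzyme source.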

human A2B AR = target: T2, human A2B AR (Homo sapiens, UniProt P29275); assay: Radioligand binding assay at human A2B AR vs. [^3H]PSB-603; details: for Ki: CHO cell membranes, n = 2 (n = 3 where marked a), read-out: Ki ± SEM, A2B vs. [^3H]PSB-603; for inhibition at 1 µM: at 1,000 nM; for inhibition at 1 µM / inhibition at 0.1 µM: read-out: % inhibition of radioligand binding at indicated concentration, A2B vs. [^3H]PSB-603; for inhibition at 0.1 µM: at 100 nM
T2 construct: expressed in transfected cells; host or cells: CHO cells
T2 sequence (P29275 1-332): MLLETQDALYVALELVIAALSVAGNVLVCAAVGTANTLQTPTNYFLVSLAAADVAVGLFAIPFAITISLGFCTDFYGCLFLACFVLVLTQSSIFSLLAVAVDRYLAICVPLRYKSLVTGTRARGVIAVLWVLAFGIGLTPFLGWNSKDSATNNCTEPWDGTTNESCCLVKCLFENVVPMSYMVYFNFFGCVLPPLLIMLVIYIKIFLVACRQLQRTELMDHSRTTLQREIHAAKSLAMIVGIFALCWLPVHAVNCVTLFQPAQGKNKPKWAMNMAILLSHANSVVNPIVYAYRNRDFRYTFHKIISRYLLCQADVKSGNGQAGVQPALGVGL
How it was run: (§1)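 Membranes of CHO cells recombinantly expressing single human AR subtypes served for human assays, A2B competed against [^3H]PSB-603. Native rat tissue was used otherwise: cortical membranes with [^3H]CCPA for A1, striatal membranes with [^3H]MSX-2 for A2A.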

rat A1 AR = target: T3, rat A1 AR (Rattus norvegicus, UniProt P25099); assay: Radioligand binding assay at rat A1 AR (rat brain cortex) vs. [^3H]CCPA; details: rat (r); rat brain cortex; n = 3
T3 construct: A1 ARs of rat brain cortical membrane; from tissue; host or cells: rat brain cortex membranes
T3 sequence (P25099 1-326): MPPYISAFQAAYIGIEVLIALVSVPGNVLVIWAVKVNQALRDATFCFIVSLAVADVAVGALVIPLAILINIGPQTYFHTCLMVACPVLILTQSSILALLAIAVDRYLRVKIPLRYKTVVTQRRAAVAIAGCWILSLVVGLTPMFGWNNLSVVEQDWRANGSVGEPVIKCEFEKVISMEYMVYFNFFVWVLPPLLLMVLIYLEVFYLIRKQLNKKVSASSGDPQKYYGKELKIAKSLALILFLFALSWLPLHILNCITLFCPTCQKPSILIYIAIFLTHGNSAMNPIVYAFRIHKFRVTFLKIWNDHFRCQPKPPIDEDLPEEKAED
How it was run: as §1

human A1 AR = target: T4, human A1 AR (Homo sapiens, UniProt P30542); assay: Radioligand binding assay at human A1 AR vs. [^3H]CCPA; details: human (h); CHO cell membranes; n = 3
T4 construct: expressed in transfected cells; host or cells: CHO cells
T4 sequence (P30542 1-326): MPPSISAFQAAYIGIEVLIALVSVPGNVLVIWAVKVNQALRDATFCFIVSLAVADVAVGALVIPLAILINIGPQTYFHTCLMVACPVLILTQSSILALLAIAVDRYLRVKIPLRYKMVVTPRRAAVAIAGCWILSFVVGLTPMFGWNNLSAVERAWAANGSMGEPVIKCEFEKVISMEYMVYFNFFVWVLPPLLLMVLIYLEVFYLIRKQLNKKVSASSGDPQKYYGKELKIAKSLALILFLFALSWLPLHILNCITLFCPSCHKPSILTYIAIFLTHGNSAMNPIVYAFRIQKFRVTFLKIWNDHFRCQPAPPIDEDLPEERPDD
How it was run: as §1

human A3 AR = target: T5, human A3 AR (Homo sapiens, UniProt P0DMS8); assay: Radioligand binding assay at human A3 AR vs. [^3H]PSB-11; details: for Ki: CHO cell membranes, n = 2 (n = 3 where marked a), read-out: Ki ± SEM, A3 vs. [^3H]PSB-11; for inhibition at 10 µM: at 10,000 nM, read-out: % inhibition of radioligand binding at indicated concentration, A3 vs. [^3H]PSB-11
T5 construct: expressed in transfected cells; host or cells: CHO cells
T5 sequence (P0DMS8 1-318): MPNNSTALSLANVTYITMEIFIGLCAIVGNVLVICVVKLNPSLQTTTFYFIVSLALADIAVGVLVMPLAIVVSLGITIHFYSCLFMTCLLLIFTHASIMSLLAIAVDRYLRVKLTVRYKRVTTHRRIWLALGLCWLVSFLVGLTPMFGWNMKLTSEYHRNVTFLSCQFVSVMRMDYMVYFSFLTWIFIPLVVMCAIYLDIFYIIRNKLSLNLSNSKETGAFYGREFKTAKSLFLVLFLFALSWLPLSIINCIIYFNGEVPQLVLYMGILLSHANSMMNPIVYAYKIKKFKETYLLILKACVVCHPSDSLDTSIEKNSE
How it was run: as §1

| inhibition at 10 µM (recombinant human MAO-B) | IC50 (recombinant human MAO-B) | Ki (human A2B AR) | inhibition at 1 µM (human A2B AR) | Ki (rat A1 AR) | Ki (human A1 AR) | Ki (human A3 AR) | inhibition at 10 µM (human A3 AR) | inhibition at 0.1 µM (human A2B AR) | Structure (SMILES) |
| --- | --- | --- | --- | --- | --- | --- | --- | --- | --- |
| 54% | ≤ 10 µM | > 1000 nM | 23% | 19.6 ± 3 nM | 22.6 ± 2.7 nM | > 10 µM | 38% |  | CCn1c(=O)c2c(nc3n2CCN(Cc2cc(C(F)(F)F)ccc2Cl)C3)n(CC)c1=O [Compound 15n, 8-(2-chloro-5-(trifluoromethyl)benzyl)-1,3-diethyl-6,7,8,9-tetrahydropyrazino[2,1-f]purine-2,4(1H,3H)-dione] |
|  | 0.136 ± 0.005 µM | > 1000 nM | 5% | 49.3 ± 8 nM | 143 ± 16 nM | > 10 µM | 23% |  | CCn1c(=O)n(C)c(=O)c2c1nc1n2CCN(Cc2cc(Cl)cc(Cl)c2)C1 [Compound 16b, 8-(3,5-dichlorobenzyl)-1-ethyl-3-methyl-6,7,8,9-tetrahydropyrazino[2,1-f]purine-2,4(1H,3H)-dione] |
| 10% | > 10 µM | > 1000 nM | 27% | 30 ± 5.7 nM | 84.8 ± 2.4 nM | > 10 µM | 36% |  | CCn1c(=O)c2c(nc3n2CCN(Cc2cccc(C(F)(F)F)c2)C3)n(CC)c1=O [Compound 15g, 1,3-diethyl-8-(3-(trifluoromethyl)benzyl)-6,7,8,9-tetrahydropyrazino[2,1-f]purine-2,4(1H,3H)-dione] |
|  | 0.106 ± 0.01 µM | > 1000 nM | 5% | 236 ± 23 nM | 396 ± 154 nM | > 10 µM | 19% |  | CCn1c(=O)n(C)c(=O)c2c1nc1n2CCN(Cc2ccc(Cl)c(Cl)c2)C1 [Compound 16a, 8-(3,4-dichlorobenzyl)-1-ethyl-3-methyl-6,7,8,9-tetrahydropyrazino[2,1-f]purine-2,4(1H,3H)-dione] |
|  | 3.07 µM | > 1000 nM | 11% | 36 ± 18.4 nM | 116 ± 27 nM | > 10 µM | 39% |  | CCn1c(=O)c2c(nc3n2CCN(Cc2cc(Br)ccc2F)C3)n(C)c1=O [Compound 14o, 8-(5-bromo-2-fluorobenzyl)-3-ethyl-1-methyl-6,7,8,9-tetrahydropyrazino[2,1-f]purine-2,4(1H,3H)-dione] |
| > 50% | ≤ 10 µM | > 1000 nM | 38% | 328 ± 70 nM | 946 ± 166 nM | 7.16 µM |  |  | C#CCn1c(=O)c2c(nc3n2CCN(c2cccc(OC)c2)C3)n(CC)c1=O [Compound 20c, 1-ethyl-8-(3-methoxyphenyl)-3-propargyl-6,7,8,9-tetrahydropyrazino[2,1-f]purine-2,4(1H,3H)-dione] |
| 58% | < 10 µM | > 1000 nM | 27% | 124 ± 21 nM | 39.4 ± 7.4 nM | > 10 µM | 25% |  | CCn1c(=O)c2c(nc3n2CCN(Cc2cc(C(F)(F)F)ccc2F)C3)n(CC)c1=O [Compound 15j, 1,3-diethyl-8-(2-fluoro-5-(trifluoromethyl)benzyl)-6,7,8,9-tetrahydropyrazino[2,1-f]purine-2,4(1H,3H)-dione] |
| 48% | ≥ 10 µM | > 100 nM |  | 59.4 ± 7.7 nM | 85.3 ± 5.5 nM | > 10 µM | 24% | 15% | CCn1c(=O)c2c(nc3n2CCN(Cc2cccc(F)c2)C3)n(C)c1=O [Compound 14g, 3-ethyl-8-(3-fluorobenzyl)-1-methyl-6,7,8,9-tetrahydropyrazino[2,1-f]purine-2,4(1H,3H)-dione] |

The remaining lines, values behind:

| Structure (SMILES) | inhibition at 10 µM (recombinant human MAO-B) | IC50 (recombinant human MAO-B) | Ki (human A2B AR) | inhibition at 1 µM (human A2B AR) | Ki (rat A1 AR) | Ki (human A1 AR) | Ki (human A3 AR) | inhibition at 10 µM (human A3 AR) | inhibition at 0.1 µM (human A2B AR) |
| --- | --- | --- | --- | --- | --- | --- | --- | --- | --- |
| CCn1c(=O)c2c(nc3n2CCN(Cc2ccc(Br)cc2)C3)n(C)c1=O [Compound 14c, 8-(4-bromobenzyl)-3-ethyl-1-methyl-6,7,8,9-tetrahydropyrazino[2,1-f]purine-2,4(1H,3H)-dione] |  | 1.63 µM | > 1000 nM | 1% | 156 ± 21 nM | 1350 nM | 9.39 µM |  |  |
| Cn1c(=O)c2c(nc3n2CCN(Cc2ccc(Cl)c(Cl)c2)C3)n(C2CC2)c1=O [Compound 17, 8-(3,4-dichlorobenzyl)-1-cyclopropyl-3-methyl-6,7,8,9-tetrahydropyrazino[2,1-f]purine-2,4(1H,3H)-dione] |  | 3.69 µM | > 100 nM |  | 584 ± 8 nM | 1130 nM | > 10 µM | 26% | 2% |
| C#CCn1c(=O)c2c(nc3n2CCN(Cc2ccc(Cl)c(Cl)c2)C3)n(C)c1=O [Compound 19a, 8-(3,4-dichlorobenzyl)-1-methyl-3-propargyl-6,7,8,9-tetrahydropyrazino[2,1-f]purine-2,4(1H,3H)-dione] |  | 0.679 ± 0.017 µM | > 1000 nM | 23% | 292 ± 21 nM | 967 ± 211 nM | 5.63 µM |  |  |
| CCn1c(=O)c2c(nc3n2CCN(Cc2cccc(C(F)(F)F)c2F)C3)n(C)c1=O [Compound 14l, 3-ethyl-8-(2-fluoro-3-(trifluoromethyl)benzyl)-1-methyl-6,7,8,9-tetrahydropyrazino[2,1-f]purine-2,4(1H,3H)-dione] | 65% | < 10 µM | > 1000 nM | 8% | 236 ± 57 nM | 495 ± 80 nM | > 10 µM | 29% |  |
| CCn1c(=O)c2c(nc3n2CCN(Cc2cc(Cl)ccc2Cl)C3)n(C)c1=O [Compound 14j, 8-(2,5-dichlorobenzyl)-3-ethyl-1-dimethyl-6,7,8,9-tetrahydropyrazino[2,1-f]purine-2,4(1H,3H)-dione] |  | 3.98 µM | > 1000 nM | 2% | 36.9 ± 6.1 nM | 391 ± 77 nM | > 10 µM | 42% |  |
| CCn1c(=O)c2c(nc3n2CCN(Cc2ccccc2C(F)(F)F)C3)n(C)c1=O [Compound 14d, 3-ethyl-1-methyl-8-(2-(trifluoromethyl)benzyl)-6,7,8,9-tetrahydropyrazino[2,1-f]purine-2,4(1H,3H)-dione] | 49% | ≥ 10 µM | > 1000 nM | 2% | 114 ± 15 nM | 244 ± 74 nM | 8.76 µM |  |  |
